Tested on: MM.1S cells
Assay: Inhibitory effect on the proliferation of MM.1S, MTS cell viability test
Type: cell-based
Details: Homo sapiens, MM1.S, 168 h, multiple myeloma MM.1S cells, 7 days incubation, read-out: Tumor cell inhibitory activity
Summary of the method: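 MM.1S cells (20,000/well, RPMI 1640 with 10% FBS) exposed to 5-fold compound dilutions at 0.2% DMSO for 7 days at 37° C, 5% CO2. MTS added for 3-4 h; OD490-OD690 gave inhibition versus DMSO, IC50 fitted, mean of three experiments.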

| Structure (SMILES) | IC50 [nM] |
| --- | --- |
| O=C1CCC(N2Cc3c(CCC[C@H](NC(=O)C4CC4)C(=O)NCc4ccccc4)cccc3C2=O)C(=O)N1 (stereo partly drawn) [Example 165, N-((2S)-1-(benzylamino)-5-(2-(2,6-dioxopiperidine-3-)-1-oxoisoindoline-4-)-1-oxopentyl-2-)cyclopropylformamide] | < 100 |
| O=C1CCC(N2Cc3c(CCCCCN4CCOc5cc(Br)ccc54)cccc3C2=O)C(=O)N1 (stereo not drawn) [Example 110, 3-(4-(5-(7-bromo-2,3-dihydro-4H-benzo[b][1,4]oxazine-4-)pentyl)-1-oxoisoindoline-2-)piperidine-2,6-dione] | < 100 |
| COc1ccc(C2(C#N)CCN(CCCCc3cccc4c3CN(C3CCC(=O)NC3=O)C4=O)CC2)c(OC)c1OC (stereo not drawn) [Example 253, 1-(4-(2-(2,6-dioxopiperidin-3-yl)-1-oxoisoindolin-4-yl)butyl)-4-(2,3,4-trimethoxyphenyl)piperidine-4-carbonitrile] | 1000 to 20000 |
| O=C1CCC(N2Cc3c(CCCCCN4CCC5(CC4)C(=O)Nc4ccc(Cl)cc45)cccc3C2=O)C(=O)N1 (stereo not drawn) [Example 133, 3-(4-(5-(5-chloro-2-oxospiro[indoline-3,4′-piperidine]-1′-)pentyl)-1-oxoisoindoline-2-)piperidine-2,6-dione] | < 100 |
| Cc1cc(C)c(C2(C#N)CCN(CCCCCc3cccc4c3CN(C3CCC(=O)NC3=O)C4=O)CC2)c(C)c1 (stereo not drawn) [Example 262, 1-(5-(2-(2,6-dioxopiperidin-3-yl)-1-oxoisoindolin-4-yl)pentyl)-4-sym-trimethylphenylpiperidine-4-carbonitrile] | 1000 to 20000 |
| O=C1CCC(N2Cc3c(OCCCCC(=O)N4CCN(c5cccc(Cl)c5Cl)CC4)cccc3C2=O)C(=O)N1 (stereo not drawn) [Example 31, 3-(4-((5-(4-(2,3-dichlorophenyl)piperazine-1-)-5-oxopentyl)oxy)-1-oxopentyl-2-)piperidine-2,6-dione] | < 100 |
| C[C@]1(N2C(=O)c3cccc(OCCCN4CCC(C#N)(c5cccc(OC(F)(F)F)c5)CC4)c3C2=O)CCC(=O)NC1=O [Example 62, (S)-1-(3-((2-(3-methyl-2,6-dioxopiperidine-3-)-1,3-dioxoisoindoline-4-)oxy)propyl)-4-(3-(trifluoromethoxy)phenyl)piperidine-4-carbonitrile] | 1000 to 20000 |
| N#CC1(c2ccccc2Cl)CCN(CCOc2cccc3c2CN(C2CCC(=O)NC2=O)C3=O)CC1 (stereo not drawn) [Example 64, 4-(2-chlorophenyl)-1-(2-((2-(2,6-dioxopiperidine-3-)-1-oxoisoindoline-4-)oxy)ethyl) piperidine-4-carbonitrile] | 100 to 1000 |
| O=C1CCC(N2Cc3c(CCCCN4CCC5(CC4)OCc4ccc(Cl)cc45)cccc3C2=O)C(=O)N1 (stereo not drawn) [Example 151, 3-(4-(4-(6-chloro-3H-spiro[isobenzofuran-1,4-piperidine]-1-)butyl)-1-oxoisoindoline-2-)piperidine-2,6-dione] | 100 to 1000 |
| N#CC1(c2ccccc2OC(F)(F)F)CCN(C(=O)CCCOc2cccc3c2CN(C2CCC(=O)NC2=O)C3=O)CC1 (stereo not drawn) [Example 90, 1-(4-((2-(2,6-dioxopiperidine-3-)-1-oxoisoindoline-4-)-oxy-)butyryl)-4-(2-trifluoromethoxyphenyl)piperidine-4-carbonitrile] | 1000 to 20000 |
| C[C@]1(N2Cc3c(OCCCN4CCC(C#N)(c5cccc(OC(F)(F)F)c5)CC4)cccc3C2=O)CCC(=O)NC1=O [Example 60, (S)-1-(3-((2-(3-methyl-2,6-dioxopiperidine-3-)-1-oxoisoindoline-4-)oxy)propyl)-4-(3-(trifluoromethoxy)phenyl)piperidine-4-carbonitrile] | 1000 to 20000 |
| O=C1CCC(N2Cc3c(CCCCN4CCN(c5ccc(F)cc5F)CC4)cccc3C2=O)C(=O)N1 (stereo not drawn) [Example 43, 3-(4-(4-(4-(2,4-difluorophenyl)piperazine-1-)butyl)-1-oxoisoindoline-2-)piperidine-2,6-dione] | < 100 |
| N#CC1(c2cc(Cl)cc(Cl)c2)CCN(CCCCCc2cccc3c2CN(C2CCC(=O)NC2=O)C3=O)CC1 (stereo not drawn) [Example 251, 4-(3,5-dichlorophenyl)-1-(5-(2-(2,6-dioxopiperidin-3-yl)-1-oxoisoindoline-4-yl)pentyl)piperidine-4-carbonitrile] | 100 to 1000 |
| O=C1CCC(N2Cc3c(CCCCCN4CCN(c5ccc(Cl)c(Cl)c5)CC4)cccc3C2=O)C(=O)N1 (stereo not drawn) [Example 234, 3-(4-(5-(4-(3,4-dichlorophenyl)piperazine-1-yl)pentyl)-1-oxoisoindoline-2-yl)piperidine-2,6-dione] | 100 to 1000 |
| COc1ccc(N2CCN(CCCCc3cccc4c3CN(C3CCC(=O)NC3=O)C4=O)CC2)cc1 (stereo not drawn) [Example 46, 3-(4-(4-(4-(4-methoxyphenyl)piperazine-1-)butyl)-1-oxoisoindoline-2-)piperidine-2,6-dione] | 100 to 1000 |
| O=C1CCC(N2Cc3c(OCCCCNC(=O)N4CCN(c5cccc(Cl)c5Cl)CC4)cccc3C2=O)C(=O)N1 (stereo not drawn) [Example 33, 4-(2,3-dichlorophenyl)-N-(4-((2-(2,6-dioxopiperidine-3-)-1-oxoisoindoline-4-)oxy)butyl)piperazine-1-carboxamide] | < 100 |
| O=C1CCC(N2Cc3c(CCCCCCOc4ccnc5ccccc45)cccc3C2=O)C(=O)N1 (stereo not drawn) [Example 3, 3-(1-oxo-4-(6-(quinoline-4-oxy)hexyl)isoindoline-2-)piperidine-2,6-dione] | < 100 |

| Structure (SMILES) | IC50 [nM] |
| --- | --- |
| N#CC1(c2ccc(Cl)cc2)CCN(CCCCCc2cccc3c2CN(C2CCC(=O)NC2=O)C3=O)CC1 (stereo not drawn) [Example 49, 4-(4-chlorophenyl)-1-(5-(2-(2,6-dioxopiperidine-3-)-1-oxoisoindoline-4-)pentyl) piperidine-4-carbonitrile] | < 100 |
| O=C1CCC(N2Cc3c(CCCCCN4CCC5(CC4)C(=O)Nc4c(Cl)cccc45)cccc3C2=O)C(=O)N1 (stereo not drawn) [Example 279, 3-(4-(5-(7-chloro-2-oxospiro[dihydroindole-3,4-piperidin]-1-yl)pentyl)-1-oxoisoindoline-2-yl)piperidine-2,6-dione] | 100 to 1000 |
| N#CC1(c2ccc(OC(F)(F)F)cc2)CCN(CCCOc2cccc3c2CN(C2CCC(=O)NC2=O)C3=O)CC1 (stereo not drawn) [Example 73, 1-(3-((2-(2,6-dioxopiperidine-3-)-1-oxoisoindoline-4-)oxy)propyl)-4-(4-trifluoromethoxyphenyl)piperidine-4-carbonitrile] | < 100 |
| O=C1CCC(N2Cc3c(CCCCCN4CCCc5cc(Br)ccc54)cccc3C2=O)C(=O)N1 (stereo not drawn) [Example 106, 3-(4-(5-(6-bromo-3,4-dihydroquinoline-1(2H))pentyl)-1-oxoisoindoline-2-)piperidine-2,6-dione] | 100 to 1000 |
| N#CC1(c2ccc(F)cc2Cl)CCN(CCCOc2cccc3c2CN(C2CCC(=O)NC2=O)C3=O)CC1 (stereo not drawn) [Example 74, 4-(2-chloro-4-fluorophenyl)-1-(3-((2-(2,6-dioxopiperidine-3-)-1-oxoisoindoline-4-)oxy)propyl)piperidine-4-carbonitrile] | < 100 |
| O=C1CCC(N2Cc3c(CCCCCN4CCCC4c4ccccc4)cccc3C2=O)C(=O)N1 (stereo not drawn) [Example 17, 3-(1-oxo-4-(5-(2-phenylpyrroline-1-)pentyl)indoline-2-)piperidine-2,6-dione] | < 100 |
| CC(=O)N[C@@H](CCCc1cccc2c1CN(C1CCC(=O)NC1=O)C2=O)c1nc2ccncc2[nH]1 (stereo partly drawn) [Example 205, N-((1S)-4-(2-(2,6-dioxopiperidine-3-)-1-oxoisoindoline-4-)-1-(3H-imidazole[4,5-c]pyridine-2-)butyl)acetamide] | > 20000 |
| Cc1ccc2c(c1)C1(CCN(CCCCOc3cccc4c3CN(C3CCC(=O)NC3=O)C4=O)CC1)OC2 (stereo not drawn) [Example 130, 3-(4-(4-(6-methyl-3H-spiro[isobenzofuran-1,4′-piperidine]-1′-)butoxy)-1-oxoisoindoline-2-)piperidine-2,6-dione] | < 100 |
| O=C1CCC(N2Cc3c(OCCCCCCN4CCC5(CC4)COc4ccccc45)cccc3C2=O)C(=O)N1 (stereo not drawn) [Example 148, 3-(4-((6-(2H-spiro[benzofuran-3,4′-piperidine]-1′-)hexyl)oxy)-1-oxoisoindoline-2-)piperidine-2,6-dione] | < 100 |
| N#CC1(c2cccc(Cl)c2)CCN(CCCCOc2cccc3c2CN(C2CCC(=O)NC2=O)C3=O)CC1 (stereo not drawn) [Example 75, 4-(3-chlorophenyl)-1-(4-((2-(2,6-dioxopiperidine-3-)-1-oxoisoindoline-4-)oxy)butyl)piperidine-4-carbonitrile] | 100 to 1000 |
| N#CC1(c2ccc(Cl)c(Cl)c2)CCN(CCCCc2cccc3c2CN(C2CCC(=O)NC2=O)C3=O)CC1 (stereo not drawn) [Example 272, 4-(3,4-dichlorophenyl)-1-(4-(2-(2,6-dioxopiperidin-3-yl)-1-oxoisoindoline-4-yl)butyl)piperidine-4-carbonitrile] | 100 to 1000 |
| N#CC1(c2cccc(Cl)c2)CCN(CCCOc2cccc3c2CN(C2CCC(=O)NC2=O)C3=O)CC1 (stereo not drawn) [Example 57, 4-(3-chlorophenyl)-1-(3-((2-(2,6-dioxopiperidine-3-)-1-oxoisoindoline-4-)oxy)propyl)piperidine-4-carbonitrile] | < 100 |
| [2H]c1c([2H])c([2H])c(N2CCN(CCCCCCc3cccc4c3CN(C3CCC(=O)NC3=O)C4=O)CC2)c([2H])c1[2H] (stereo not drawn) [Example 209, 3-(1-oxo-4-(6-(4-(phenyl-d5)piperazine-1-)hexyl)isoindoline-2-)piperidine-2,6-dione] | < 100 |
| CC(=O)N[C@@H](CCCc1cccc2c1CN(C1CCC(=O)NC1=O)C2=O)C(=O)Nc1ccccc1-c1ccccn1 (stereo partly drawn) [Example 194, (2S)-2-acetylamino-5-(2-(2,6-dioxopiperidine-3-)-1-oxoisoindoline-4-)-N-(2-(pyridine-2-)phenyl)pentanamide] | 100 to 1000 |
| O=C1CCC(N2Cc3c(CCCCCN4CCN(c5cccc(C(F)(F)F)c5)CC4)cccc3C2=O)C(=O)N1 (stereo not drawn) [Example 23, 3-(1-oxo-4-(5-(4-(3-trifluoromethylphenyl)piperazine-1-)pentyl)isoindoline-2-)piperidine-2,6-dione] | < 100 |
| O=C1CCC(N2Cc3c(OCCCCN4CCN(c5noc6ccccc56)CC4)cccc3C2=O)C(=O)N1 (stereo not drawn) [Example 242, 3-(4-(4-(4-(benzisoxazole-3-yl)piperazine-1-yl)butoxy)-1-oxoisoindoline-2-yl)piperidine-2,6-dione] | 1000 to 20000 |
